Laboratory results taken from patent publication US20260209180A1, “PROTEASE INHIBITORS FOR TREATING OR PREVENTING CORONAVIRUS INFECTION” (Merck Sharp & Dohme LLC, priority 2023, published 2026).

biological target: SARS2 coronavirus 3CL protease (Severe acute respiratory syndrome coronavirus 2, UniProt P0DTD1); assay: SARS2 Coronavirus 3CL Protease Assay (FRET); assay type: biochemical; conditions: 5 nM protease pre-incubated with compound 30 minutes; 15 uM peptide substrate; 4 h room temperature; read-out: FRET Potency (nM); IC50 values in the SARS2 3CLPro FRET assay
Procedure: The enzymatic activity of SARS2 coronavirus 3CL protease was determined in a FRET (fluorescence resonance energy transfer)-based assay measuring the cleavage of a peptide substrate by recombinantly expressed and purified enzyme. Cleavage of the peptide SEQ ID NO: 1 (CPC Scientific) by SARS2 3CL protease was measured in reaction buffer (50 mM Hepes pH 7.5, 0.01% Triton X-100, 0.01% BSA, 2 mM DTT). […] Room temperature reactions (4 h) were quenched by addition of a high dose of inhibitor and read on an appropriate plate reader (excitation wavelength=495 nm, emission wavelength=520 nm). Data were analyzed by a standard 4 parameter fit to determine IC50 values.

SMILES | IC50
CNC(=O)C(=O)[C@H](CCC(C)(F)F)NC(=O)c1cc(Cl)cnc1NC(=O)c1cccc(C(F)(F)F)c1 [Example 21, 5-chloro-N-[(1S)-4,4-difluoro-1-[2-(methylamino)-2-oxo-acetyl]pentyl]-2-[[3-(trifluoromethyl)benzoyl]amino]pyridine-3-carboxamide] | 11.7 nM
CNC(=O)C(=O)[C@H](CCC(C)(F)F)NC(=O)c1cc(Cl)cnc1NC(=O)C1(C(F)(F)F)CC1 [Example 36, 5-chloro-N-[(1S)-4,4-difluoro-1-[2-(methylamino)-2-oxo-acetyl]pentyl]-2-[[1-(trifluoromethyl)cyclopropane-carbonyl]amino]pyridine-3-carboxamide] | 24.4 nM
CNC(=O)C(=O)[C@H](CCC(C)(F)F)NC(=O)c1cc(F)cnc1NC(=O)c1cccc(C(F)(F)F)c1 [Example 18, N-[(1S)-4,4-difluoro-1-[2-(methylamino)-2-oxo-acetyl]pentyl]-5-fluoro-2-[[3-(trifluoromethyl)benzoyl]amino]pyridine-3-carboxamide] | 9.8 nM
CC(F)(F)CC[C@H](NC(=O)c1cc(Cl)cnc1NC(=O)C1(C(F)(F)F)CC1)C(=O)C(=O)NC1CC1 [Example 44, 5-chloro-N-[(1S)-1-[2-(cyclopropylamino)-2-oxo-acetyl]-4,4-difluoro-pentyl]-2-[[1-(trifluoromethyl)cyclopropane-carbonyl]amino]pyridine-3-carboxamide] | 50.4 nM
CNC(=O)C(=O)[C@H](CCC(C)(F)F)NC(=O)c1cc(Cl)ccc1NC(=O)C12CC(C(F)(F)F)(C1)C2 [Example 22, N-[4-chloro-2-[[(1S)-4,4-difluoro-1-[2-(methylamino)-2-oxo-acetyl]pentyl]carbamoyl]phenyl]-3-(trifluoromethyl)bicyclo[1.1.1] pentane-1-carboxamide] | 13 nM
CC(F)(F)CC[C@H](NC(=O)c1cc(F)cnc1NC(=O)C(C)(C)C)C(=O)C(=O)NC1CC1 [Example 46, N-[(1S)-1-[2-(cyclopropylamino)-2-oxo-acetyl]-4,4-difluoro-pentyl]-2-(2,2-dimethylpropanoylamino)-5-fluoro-pyridine-3-carboxamide] | 94.8 nM
CNC(=O)C(=O)[C@H](CCC(C)(F)F)NC(=O)c1cc(Cl)ccc1NC(=O)OC [Example 49, methyl N-[4-chloro-2-[[(1S)-4,4-difluoro-1-[2-(methylamino)-2-oxo-acetyl]pentyl]carbamoyl]phenyl]carbamate] | 7.1 nM
CNC(=O)C(=O)[C@H](CCC(C)(F)F)NC(=O)c1cc(Cl)ccc1NC(=O)C1CC12CC2 (single isomer, unassigned) [Example 33] | 21.5 nM
CNC(=O)C(=O)[C@H](CCC(C)(F)F)NC(=O)c1cc(Cl)ccc1NC(=O)c1ccnc(C(F)(F)F)c1 [Example 1, (S)—N-(4-chloro-2-((6,6-difluoro-1-(methylamino)-1,2-dioxoheptan-3-yl)carbamoyl)phenyl)-2-(trifluoromethyl)isonicotinamide] | 8.1 nM
CNC(=O)C(=O)[C@H](CCC(C)(F)F)NC(=O)c1cc(F)cnc1NC(=O)C(C)(C)C [Example 43, N-[(1S)-4,4-difluoro-1-[2-(methylamino)-2-oxo-acetyl]pentyl]-2-(2,2-dimethylpropanoylamino)-5-fluoro-pyridine-3-carboxamide] | 49.6 nM
CNC(=O)C(=O)[C@H](CCC(C)(F)F)NC(=O)c1cc(Cl)ccc1NC(=O)C1CCc2scnc21 (stereo partly drawn) [Example 15, N-[4-chloro-2-[[(1S)-4,4-difluoro-1-[2-(methylamino)-2-oxo-acetyl]pentyl]carbamoyl]phenyl]-5,6-dihydro-4H-cyclopenta[d]thiazole-4-carboxamide] | 8.4 nM
CNC(=O)C(=O)[C@H](CCC(C)(F)F)NC(=O)c1cc(Cl)ccc1NC(=O)C1CC(F)(F)C1 [Example 13, 5-chloro-2-[(3,3-difluorocyclobutanecarbonyl)amino]-N-[(1S)-4,4-difluoro-1-[2-(methylamino)-2-oxo-acetyl]pentyl]benzamide] | 8 nM
